Reference: PubChem BioAssay (NCI)
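Assay format: 96-well plates, 48-hour exposure. GI50 is the concentration that inhibits growth by half. TGI: total growth inhibition.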

How the values were obtained:
Assay in all cases: NCI anticancer screen, dose series, 48 h
UACC-257 melanoma = system: UACC-257 melanoma
SF-268 CNS = system: SF-268 CNS
SR leukemia = system: SR leukemia
K-562 leukemia = system: K-562 leukemia
NCI-H522 lung = system: NCI-H522 lung
T-47D breast = system: T-47D breast
ACHN renal = system: ACHN renal
NCI/ADR-RES ovarian = system: NCI/ADR-RES ovarian
HOP-62 NSCLC = system: HOP-62 NSCLC
RXF 393 renal = system: RXF 393 renal
HCT-15 colon = system: HCT-15 colon
A549 NSCLC = system: A549 NSCLC
U251 CNS = system: U251 CNS
TK-10 renal = system: TK-10 renal
EKVX NSCLC = system: EKVX NSCLC
SK-OV-3 ovarian = system: SK-OV-3 ovarian
UACC-62 melanoma = system: UACC-62 melanoma
CCRF-CEM leukemia = system: CCRF-CEM leukemia
PC-3 prostate = system: PC-3 prostate
SK-MEL-5 melanoma = system: SK-MEL-5 melanoma
NCI-H460 lung = system: NCI-H460 lung
SF-295 CNS = system: SF-295 CNS
MALME-3M melanoma = system: MALME-3M melanoma
HOP-92 NSCLC = system: HOP-92 NSCLC
BT-549 breast = system: BT-549 breast
HS 578T breast = system: HS 578T breast
OVCAR-4 ovarian = system: OVCAR-4 ovarian
CAKI-1 renal = system: CAKI-1 renal
SK-MEL-28 melanoma = system: SK-MEL-28 melanoma
SW-620 colon = system: SW-620 colon
OVCAR-8 ovarian = system: OVCAR-8 ovarian
NCI-H226 lung = system: NCI-H226 lung
MDA-MB-435 = system: MDA-MB-435
MOLT-4 leukemia = system: MOLT-4 leukemia
MCF7 breast = system: MCF7 breast
SNB-75 CNS = system: SNB-75 CNS
HCT-116 colon = system: HCT-116 colon
NCI-H23 lung = system: NCI-H23 lung
IGROV1 ovarian = system: IGROV1 ovarian
KM12 colon = system: KM12 colon
COLO 205 colon = system: COLO 205 colon
SK-MEL-2 melanoma = system: SK-MEL-2 melanoma
OVCAR-5 ovarian = system: OVCAR-5 ovarian
M14 melanoma = system: M14 melanoma
A498 renal = system: A498 renal
OVCAR-3 ovarian = system: OVCAR-3 ovarian
SN12C renal = system: SN12C renal
DU-145 prostate = system: DU-145 prostate
RPMI-8226 leukemia = system: RPMI-8226 leukemia
HCC-2998 colon = system: HCC-2998 colon
MDA-MB-231 breast = system: MDA-MB-231 breast
HT29 colon = system: HT29 colon
LOX IMVI melanoma = system: LOX IMVI melanoma
SF-539 CNS = system: SF-539 CNS
SNB-19 CNS = system: SNB-19 CNS
HL-60(TB) leukemia = system: HL-60(TB) leukemia

With `COc1ccc(-c2c(C#N)cnc(N)c2-c2nc3cc(C)c(C)cc3[nH]2)cc1` the GI50 (UACC-257 melanoma) was 52 µM, the TGI (UACC-257 melanoma) was over 100 µM and the GI50 (SF-268 CNS) was 9.8 µM. It also gave a TGI (SF-268 CNS) of 65.7 µM, a GI50 (SR leukemia) of 5.64 µM and a TGI (SR leukemia) of over 100 µM. For the same compound, the GI50 (K-562 leukemia) was 6.03 µM, the TGI (K-562 leukemia) was over 100 µM and the GI50 (NCI-H522 lung) was 4.74 µM. It also gave a TGI (NCI-H522 lung) of 54.7 µM, a GI50 (T-47D breast) of 15.4 µM and a TGI (T-47D breast) of over 100 µM. It also gave a GI50 (ACHN renal) of 39.8 µM, a TGI (ACHN renal) of over 100 µM and a GI50 (NCI/ADR-RES ovarian) of 6.84 µM. The TGI (NCI/ADR-RES ovarian) was over 100 µM, the GI50 (HOP-62 NSCLC) was 3.65 µM and the TGI (HOP-62 NSCLC) was 14.4 µM. The GI50 (RXF 393 renal) was 5.68 µM, the TGI (RXF 393 renal) was 20.4 µM and the GI50 (HCT-15 colon) was 5.81 µM. It also gave a TGI (HCT-15 colon) of over 100 µM, a GI50 (A549 NSCLC) of 6.54 µM and a TGI (A549 NSCLC) of 72.4 µM. It also gave a GI50 (U251 CNS) of 3.65 µM, a TGI (U251 CNS) of 12.7 µM and a GI50 (TK-10 renal) of 5.94 µM. It also gave a TGI (TK-10 renal) of 26.4 µM, a GI50 (EKVX NSCLC) of 15.8 µM and a TGI (EKVX NSCLC) of over 100 µM. The GI50 (SK-OV-3 ovarian) was 4.84 µM, the TGI (SK-OV-3 ovarian) was 18.4 µM and the GI50 (UACC-62 melanoma) was 7.22 µM. For the same compound, the TGI (UACC-62 melanoma) was over 100 µM, the GI50 (CCRF-CEM leukemia) was 25.6 µM and the TGI (CCRF-CEM leukemia) was over 100 µM. The GI50 (PC-3 prostate) was 8.86 µM, the TGI (PC-3 prostate) was over 100 µM and the GI50 (SK-MEL-5 melanoma) was 8.78 µM. For the same compound, the TGI (SK-MEL-5 melanoma) was over 100 µM, the GI50 (NCI-H460 lung) was 18.1 µM and the TGI (NCI-H460 lung) was over 100 µM. For the same compound, the GI50 (SF-295 CNS) was 6.41 µM, the TGI (SF-295 CNS) was 23.4 µM and the GI50 (MALME-3M melanoma) was 6 µM. The TGI (MALME-3M melanoma) was 48.3 µM, the GI50 (HOP-92 NSCLC) was 2.65 µM and the TGI (HOP-92 NSCLC) was 16.3 µM. The GI50 (BT-549 breast) was 30.6 µM, the TGI (BT-549 breast) was over 100 µM and the GI50 (HS 578T breast) was 5.87 µM. For the same compound, the TGI (HS 578T breast) was over 100 µM, the GI50 (OVCAR-4 ovarian) was 22.5 µM and the TGI (OVCAR-4 ovarian) was over 100 µM. For the same compound, the GI50 (CAKI-1 renal) was 14.6 µM, the TGI (CAKI-1 renal) was over 100 µM and the GI50 (SK-MEL-28 melanoma) was 17.2 µM. The TGI (SK-MEL-28 melanoma) was over 100 µM, the GI50 (SW-620 colon) was 6.76 µM and the TGI (SW-620 colon) was over 100 µM. The GI50 (OVCAR-8 ovarian) was 5.2 µM, the TGI (OVCAR-8 ovarian) was 26.8 µM and the GI50 (NCI-H226 lung) was 16.4 µM. It also gave a TGI (NCI-H226 lung) of over 100 µM, a GI50 (MDA-MB-435) of 1.95 µM and a TGI (MDA-MB-435) of 5.39 µM. The GI50 (MOLT-4 leukemia) was over 100 µM, the TGI (MOLT-4 leukemia) was over 100 µM and the GI50 (MCF7 breast) was 6.34 µM. It also gave a TGI (MCF7 breast) of over 100 µM, a GI50 (SNB-75 CNS) of 2.36 µM and a TGI (SNB-75 CNS) of 8.19 µM. It also gave a GI50 (HCT-116 colon) of 4.63 µM, a TGI (HCT-116 colon) of over 100 µM and a GI50 (NCI-H23 lung) of 5.37 µM. It also gave a TGI (NCI-H23 lung) of 33.3 µM, a GI50 (IGROV1 ovarian) of 16 µM and a TGI (IGROV1 ovarian) of over 100 µM. It also gave a GI50 (KM12 colon) of 3.47 µM, a TGI (KM12 colon) of over 100 µM and a GI50 (COLO 205 colon) of 7.78 µM. The TGI (COLO 205 colon) was 63.7 µM, the GI50 (SK-MEL-2 melanoma) was 10.8 µM and the TGI (SK-MEL-2 melanoma) was 98 µM. For the same compound, the GI50 (OVCAR-5 ovarian) was 52.4 µM, the TGI (OVCAR-5 ovarian) was over 100 µM and the GI50 (M14 melanoma) was 6.61 µM. For the same compound, the TGI (M14 melanoma) was over 100 µM, the GI50 (A498 renal) was 10.7 µM and the TGI (A498 renal) was 63.6 µM. It also gave a GI50 (OVCAR-3 ovarian) of 14.8 µM, a TGI (OVCAR-3 ovarian) of 30.4 µM and a GI50 (SN12C renal) of 25.4 µM. The TGI (SN12C renal) was over 100 µM, the GI50 (DU-145 prostate) was 6.92 µM and the TGI (DU-145 prostate) was 23.8 µM. The GI50 (RPMI-8226 leukemia) was 32.5 µM, the TGI (RPMI-8226 leukemia) was over 100 µM and the GI50 (HCC-2998 colon) was 11 µM. The TGI (HCC-2998 colon) was over 100 µM, the GI50 (MDA-MB-231 breast) was 8.28 µM and the TGI (MDA-MB-231 breast) was over 100 µM. The GI50 (HT29 colon) was 4.79 µM, the TGI (HT29 colon) was over 100 µM and the GI50 (LOX IMVI melanoma) was 5.74 µM. It also gave a TGI (LOX IMVI melanoma) of over 100 µM, a GI50 (SF-539 CNS) of 11.5 µM and a TGI (SF-539 CNS) of 41.9 µM. The GI50 (SNB-19 CNS) was 7.06 µM, the TGI (SNB-19 CNS) was 57.1 µM and the GI50 (HL-60(TB) leukemia) was 83.6 µM. The TGI (HL-60(TB) leukemia) was over 100 µM.
